From patent US10357576B2, “18F-labelled folate/antifolate analogues” (MERCK & CIE, priority 2012, dated 2019)

How the values were obtained:
[1] = Log D7.4 determination, shake-flask method (n-octanol/PBS); format: physicochemical; conditions: n-octanol/PBS pH 7.4, room temperature, n=10
Description: Determination of the Log D: Determination of the log D value was performed, using the shake-flask-method, where the partition coefficient of the radiotracer between n-octanol and phosphate buffered saline (PBS) was determined (Wilson et al. 2001 Applied Radiation and Isotopes). n-Octanol (0.5 ml) and PBS (0.5 ml) were mixed in an Eppendorf tube containing the radioactive sample (5-10 μl). Tubes were shaken for 15 min at room temperature in an over-head shaker and afterwards centrifuged (3 min, 5000 rpm). From each Eppendorf tube, 50 μl of each phase were transferred into a vial for counting in a γ-counter. The log D value was calculated according to the following equation: log D7.4=log [activity(octanol phase)/activity PBS phase)].
For log D7.4 determination a phosphate buffer was prepared, making a solution of KH2PO4 (1.743 g, 12.81 mmol) and Na2HPO4.2H2O (9.596 g, 53.91 mmol) in water (1000 ml). A saturated solution of phosphate buffer in n-octanol and a saturated solution of n-octanol in phosphate buffer were prepared. The PBS solution (500 μl) and n-octanol solution (500 μl) were pipetted into an Eppendorf tube and the radiotracer (5-10 μl) was added. The Eppendorf tube was shaken for 15 min at room temperature in an over-head shaker. […] By calculating the logarithm of the ratio of the counts in the n-octanol and the PBS phase, the log D7.4 value was determined. […]

[2] = Stability experiments using liver microsomes (human); format: in vitro ADME; conditions: 37° C., 1 h, NADPH regenerating system, radio-UPLC
Description: General: Reagents and solvents were purchased from Sigma-Aldrich Chemie GmbH, Acros Organics or VWR International AG if nothing else is mentioned. All chemicals were used as supplied. Human and mouse (female CD-1) microsomes and the NADPH regenerating systems were purchased from BD biosciences.
(§1) Radio-UPLC: For stability studies, an ultra-performance liquid chromatography (UPLC™, Waters) system, equipped with an Acquity UPLC BEH C18 column (1.7 μm, 2.1×50 mm, Waters) and a coincidence detector (FlowStar LB513, Berthold) was used with following solvent system: eluent A was a NaH2PO4/Na2HPO4 buffer (0.05 M, pH 7.4) and eluent B was acetonitrile. A gradient from 0-4.0 min 100%-40% A, at a flow rate of 0.6 ml/min was used.
To a mixture of KH2PO4/K2HPO4 buffer (pH 7.4, 0.5 M, 200 μl), NADPH regenerating system A (50 μl), NADPH regenerating system B (10 μl), an aliquot of [^18F]-3′-aza-2′-fluorofolic acid (38 μl, approx. 15 MBq) was added and filled up with water (677 μl) to a volume of 975 μl and preincubated at 37° C. Then, mouse or human liver microsomes (20 mg/ml, 25 μl) were added and incubated at 37° C. After several time points (0, 20, 40 and 60 min) aliquots (100 μl) were drawn and the enzymatical reaction was stopped by purring the solution into ice-cold methanol (200 μl). […] Every time point was performed as a triplicate and analyzed on a radio-UPLC system. […]

[3] = Stability experiments using glutathione / S9-fraction; format: in vitro ADME, human; conditions: 37° C., 1 h, radio-UPLC
Description: as §1
Glutathione (0.1 M, 100 μl), S9-fraction (20 mg/ml, 50 μl) and KH2PO4/K2HPO4 buffer (pH 7.4, 0.5 M, 200 μl) were diluted with water (612 μl) to a volume of […] and [^18F]-3′-aza-2′-fluorofolic acid (38 μl, approx. 15 MBq) was added. The mixture was incubated at 37° C. At several time points aliquots (100 μl) were drawn and the reaction was stopped by pouring the sample into ice-cold methanol (200 μl). Each sample was diluted with NaH2PO4/Na2HPO4 buffer (pH 7.4, 0.05 M, 600 μl). Every time point was performed as duplicates and analyzed on a radio-UPLC system.

log D7.4 (partition coefficient in n-octanol/PBS) [1]: −4.2±0.1 | logD ([1]; read-out: log D7.4 (partition coefficient in n-octanol/PBS)): -4.2 ± 0.1 | Stability in human liver microsomes [2]: completely stable | Stability with glutathione and S9-fraction [3]: completely stable
Structure (SMILES): Nc1nc2ncc(CNc3ccc(C(=O)N[C@@H](CCC(=O)O)C(=O)O)c([18F])n3)nc2c(=O)[nH]1 [3′-aza-2′-[^18F]fluorofolic acid]
